Measured values taken from patent US6683157B2, “Variant human α7 acetylcholine receptor subunit, and methods of production and use thereof” (priority 1996, dated 2004).
“Also recorded” adds a separate entry of the source. Structures can show the parent of a compound that is named as a salt. Where two headings read alike, the source gives them in different places.

Columns and labels:
human α7 wild type nAChR [1] = molecular target: T1, human α7 wild type nAChR (Homo sapiens, UniProt P36544); experiment: Agonist concentration-response, two-electrode voltage-clamp in Xenopus laevis oocytes; format: cell-based; details: for Hill coefficient: Hill equation fit
T1 construct: This created a new cDNA encoding a full length α7 subunit; expressed in transfected cells; host or cells: Xenopus laevis oocytes injected with receptor RNA or DNA

human α7V274T nAChR [2] = molecular target: T2, human α7V274T nAChR (Homo sapiens, UniProt P36544, V274T); experiment: as above; format: cell-based
T2 construct: This created a new cDNA encoding a full length α7 subunit; expressed in transfected cells

chick α7V251T nAChR [3] = details: cited from earlier work
chick α7V251T nAChR [4] = molecular target: chick α7V251T nAChR (Gallus gallus, UniProt P22770, V274T); details: 10 μM DHβE; cited from earlier work
human α7V274T nAChR [5] = molecular target: T2, human α7V274T nAChR; experiment: Inhibition of the response to ACh in Xenopus oocytes; format: cell-based; details: for % Inhibition, 1 μM ACh: inhibition of response to 1 μM ACh; for % Inhibition, 1 μM ACh / % Inhibition, 10 μM ACh: ligand μM: DHβE 10, d-TC 1, MLA 0.01, MEC 10, ATROP 2; for % Inhibition, 10 μM ACh: inhibition of response to 10 μM ACh; for inhibition of ACh response: MEC 10 μM against 1 μM ACh in three of the five oocytes inhibited by atropine
human α7 wild type nAChR [6] = molecular target: T1, human α7 wild type nAChR; experiment: nAChR antagonists applied alone as agonists, current response in Xenopus oocytes; format: cell-based; details: ligand μM: DHβE 10, d-TC 1, MLA 0.01, MEC 10, ATROP 2
human α7V274T nAChR [7] = molecular target: T2, human α7V274T nAChR; experiment: as above; format: cell-based; details: for % Activation, 10 μM ACh: compared to activation by 10 μM ACh, ligand μM: DHβE 10, d-TC 1, MLA 0.01, MEC 10, ATROP 2, mean ± s.e.m. (n)
human α7 wild type nAChR [8] = molecular target: T1, human α7 wild type nAChR; experiment: Inhibition of the response to ACh in Xenopus oocytes; format: cell-based; details: ligand μM: DHβE 10, d-TC 1, MLA 0.01, MEC 10, ATROP 2; for % Inhibition, % of 200 μM ACh: inhibition of response to 200 μM ACh; for % Inhibition, % of 10 mM ACh: inhibition of response to 10 mM ACh
human α7 nAChR = human α7 nAChR (Homo sapiens, UniProt P36544); details: cited from earlier work
chick α7 nAChR = chick α7 nAChR (Gallus gallus, UniProt P22770); details: cited from earlier work
chick α7L247T nAChR = chick α7L247T nAChR (Gallus gallus, UniProt P22770, L270T); details: cited from earlier work

Compound	Hill coefficient (human α7V274T nAChR [2]; Hill equation fit)	% Inhibition, 1 μM ACh (human α7V274T nAChR [5])	% Inhibition, 10 μM ACh (human α7V274T nAChR [5])	% Activation, % of 10 mM ACh (human α7 wild type nAChR [6])	% Activation, 10 μM ACh (human α7V274T nAChR [7])	% Inhibition, % of 200 μM ACh (human α7 wild type nAChR [8])	% Inhibition, % of 10 mM ACh (human α7 wild type nAChR [8])	other results
CN1CCCC1c1cccnc1 (single isomer, unassigned; (-)) [(−)-nicotine]	1.3±0.2							Hill coefficient (human α7 wild type nAChR [1]): 1.2±0.2
Cc1ncccc1OC[C@@H]1CCCN1 [ABT-089]								agonist type (human α7 wild type nAChR [1]): partial agonists; EC50 (human α7V274T nAChR [2]): 28 ± 3 µM; efficacy (human α7V274T nAChR [2]; responses normalized to the response to ACh): 40±1%
CC(=O)OCC[N+](C)(C)C [ACh, Acetylocholine chloride]	1.8±0.2							increase in ACh potency versus chick α7 wild type (chick α7V251T nAChR [3]): 180 fold; Hill coefficient (human α7 wild type nAChR [1]): 0.94±0.09
Br.CO[C@H]1CC=C2CCN3CCC4=C(CC(=O)OC4)[C@]23C1 [DHβE, Dihydro-β-erythroidine hydrobromide]		69 ± 5 (4) %	52 ± 6 (4) %	−0.2 ± 0.1 (5) %	4 ± 1 (4) %	41 ± 10 (4) %	23 ± 2 (4) %	response as % of the ACh response (chick α7V251T nAChR [4]): 66%
C[N+]1(C)CCN(c2ccccc2)CC1 [DMPP, 1,1-dimethyl-4-phenylpiperazinium]								agonist type (human α7 nAChR): highly efficacious agonist; agonist type (chick α7 nAChR): very weak partial agonist
COc1ccc(/C=C2\CCCN=C2c2cccnc2)c(OC)c1 [GTS-21]	1.5±0.1							agonist type (human α7 wild type nAChR [1]): partial agonists; agonist type (human α7V274T nAChR [2]): full agonist; EC50 (human α7V274T nAChR [2]; peak amplitude normalized to ACh response, Hill equation fit, holding potential −60 mV): 4.3 ± 0.3 µM
CNC1(C)C2CCC(C2)C1(C)C (centres unmarked) [MEC, mecamylamine hydrochloride]		101 ± 1 (4) %	53 ± 2 (4) %	−0.3 ± 0.2 (3) %	−1.9 ± 0.2 (4) %	82 ± 1 (3) %	85 ± 3 (3) %	inhibition of ACh response (human α7V274T nAChR [5]): completely blocked
COc1cc2c3cc1Oc1cc(ccc1O)C[C@@H]1c4c(cc(OC)c(O)c4Oc4ccc(cc4)C[C@@H]3N(C)CC2)CC[N+]1(C)C.Cl.O.O.O.O.O.[Cl-] [d-TC, d-tubocurarine chloride]		99 ± 1 (4) %	97 ± 3 (3) %	−0.1 ± 0.1 (5) %	−2 ± 1 (4) %	28 ± 2 (4) %	25 ± 3 (4) %	inhibition of ACh response (human α7V274T nAChR [5]): potent antagonist; activation of inward current (chick α7L247T nAChR): full response; outward current amplitude, % of the maximal inward current response to ACh (human α7V274T nAChR [7]; MLA 10 nM, MEC 10 μM, d-TC 1 μM (d-TC in two of four oocytes)): 3-5%; current response to ligand alone (human α7V274T nAChR [7]; d-TC 1 μM, atropine 2 μM): did not elicit agonist-like inward currents; also recorded: did not activate inward currents
